Reference: paper PMC8708503, “Scalarane Sesterterpenoids with Antibacterial and Anti-Proliferative Activities from the Mushroom Neonothopanus nambi” (Molecules, 2021)
Converted amounts (≈) assume the structure as drawn.

How the values were obtained:
Assay type in all cases: cell-based
[1] = system: Methicillin Resistant Staphylococcus aureus DMST 20654; assay: Antibacterial assay (CLSI), MRSA; parameters: key to MIC, Methicillin Resistant Staphylococcus aureus DMST 20654: inactive: Inactive at >128 μg/mL; conditions: Inactive at >128 μg/mL; for MIC: Staphylococcus aureus
Experimental: (§1) Five microorganism cultures (Methicillin resistant S. aureus DMST 20654, S. aureus ATCC 25923, S. sonnei ATCC 11060, B. subtilis ATCC 6633, and B. cereus ATCC 11778) were used. The experiments were performed at the Department of Microbiology, Faculty of Science, Khon Kaen University, Thailand. The antibacterial assay was performed as recommended by the Clinical and Laboratory Standards Institute. The standard drugs kanamycin and chloramphenicol were used as positive controls.

[2] = system: Bacillus cereus ATCC 11778; assay: Antibacterial assay (CLSI), B. cereus; parameters: key to MIC, Bacillus cereus ATCC 11778: inactive: Inactive at >128 μg/mL; conditions: Inactive at >128 μg/mL; for MIC: Bacillus cereus, ATCC11778
Experimental: as §1

[3] = system: Bacillus subtilis ATCC 6633; assay: Antibacterial assay (CLSI), B. subtilis; parameters: key to MIC, Bacillus subtilis ATCC 6633: inactive: Inactive at >128 μg/mL; conditions: Inactive at >128 μg/mL; for MIC: Bacillus subtilis, ATCC6633
Experimental: as §1

[4] = system: Staphylococcus aureus ATCC 25923; assay: Antibacterial assay (CLSI), S. aureus; parameters: key to MIC, Staphylococcus aureus ATCC 25923: inactive: Inactive at >128 μg/mL; conditions: Inactive at >128 μg/mL; for MIC: Staphylococcus aureus, ATCC25923
Experimental: as §1

[5] = system: HCT-116 human colon cancer; assay: MTT anti-proliferative assay, HCT-116; conditions: Mean ± S.D. (n = 3)
Experimental: (§2) The anti-proliferative effect on cancer cells was evaluated by MTT (3-(4,5-dimethylthiazol-2-yl)-2,5-diphenyltetrazolium bromide) assay. Cells (8 × 10^3 cell/well) were seeded onto 96-well plates and incubated for 24 h to allow adherence. After 24 h, the cells were exposed to increasing concentrations (3.12, 6.25, 12.5, 25, 50, and 100 μg/mL) of pure metabolites in a mixture of DMSO and ethanol (1:1) for 72 h. Control groups were treated with a mixture of DMSO and ethanol (1:1). After the indicated time, the medium was replaced with 110 μL of fresh medium containing MTT (0.5 mg/mL in PBS) (Sigma Chemical Co., St Louis, MO, USA) and incubated for 2 h. The formazan formed after conversion of MTT was dissolved in DMSO. The absorbance of formazan was measured with a microplate reader (Bio-Rad Laboratories, Hercules, CA, USA) at the wavelength of 550 nm with a reference wavelength of 655 nm. The percentage of viable cells which corresponds to the production of formazan was calculated using the following formula [19]. %cell viability = [Sample (A550 - […])/Control (A550 - […])] × 100(1)

HT29 human colon cancer = assay: MTT anti-proliferative assay, HT29; conditions: Mean ± S.D. (n = 3)
Experimental: as §2

Vero cells = assay: MTT cytotoxicity assay, Vero cells; conditions: 72 h, Mean ± S.D. (n = 3)
Experimental: as §2

[6] = system: A549 human lung carcinoma cell line; assay: MTT anti-proliferative assay, A549; conditions: Mean ± S.D. (n = 3)
Experimental: as §2

[7] = system: HeLa human cervical cancer; assay: MTT anti-proliferative assay, HeLa; conditions: 72 h, Mean ± S.D. (n = 3)
Experimental: as §2

| SMILES | MIC [1] | MIC [2] | MIC [3] | MIC [4] | IC50 ([5]; Homo sapiens, HCT-116, 72 h) | MIC, Methicillin Resistant Staphylococcus aureus DMST 20654 [1] | IC50 (HT29 human colon cancer; Homo sapiens, HT-29, 72 h) | MIC, Bacillus cereus ATCC 11778 [2] | MIC, Bacillus subtilis ATCC 6633 [3] | IC50 ([6]; Homo sapiens, A549, 72 h) | IC50 ([7]; Homo sapiens, HeLa) | MIC, Staphylococcus aureus ATCC 25923 [4] | IC50 (Vero cells; Chlorocebus sabaeus, Vero) | IC50, Vero Cells (Vero cells) | IC50 ([5]; 72 h) | IC50 (HT29 human colon cancer; 72 h) | IC50 (Vero cells) | IC50 ([6]; 72 h) | IC50 [7] |
| --- | --- | --- | --- | --- | --- | --- | --- | --- | --- | --- | --- | --- | --- | --- | --- | --- | --- | --- | --- |
| O=C(N[C@H](CO)[C@H](O)c1ccc([N+](=O)[O-])cc1)C(Cl)Cl [Chloramphenicol, reference compound] | 8 mg/L (≈ 24.8 µM) | 4 mg/L (≈ 12.4 µM) | 4 mg/L (≈ 12.4 µM) | 8 mg/L (≈ 24.8 µM) |  |  |  |  |  |  |  |  |  |  |  |  |  |  |  |
| CC(=O)OC1CC2(C)C3CCc4cocc4C3(C)CC(OC(=O)CC(C)=CC(=O)O)C2C2(C)CCCC(C)(C)C12 (centres unmarked) [Compound 3, Nambiscalarane D] |  | 32 mg/L (≈ 57.7 µM) | 16 mg/L (≈ 28.8 µM) |  | 21.4 ± 1.14 µM | inactive | 20.8 ± 0.63 µM |  |  | 25 ± 1.59 µM | 21.1 ± 1.66 µM | inactive | 70.2 ± 8.23 µM | no cytotoxicity |  |  |  |  |  |
| CC(=O)OC1CC2(C)C3CCC4=C(COC4=O)C3(C)CC(OC(=O)C=C(C)CC(=O)O)C2C2(C)CCCC(C)(C)C12 (centres unmarked) [Compound 5, Nambiscalarane F] |  | 128 mg/L (≈ 224 µM) | 128 mg/L (≈ 224 µM) | 16 mg/L (≈ 28 µM) | 32.7 ± 2.37 µM | inactive | 54.5 ± 5.93 µM |  |  | 99.14 ± 0.36 µM | 72.9 ± 5.23 µM |  | > 100 µM | no cytotoxicity |  |  |  |  |  |
| CC(=O)OC1CC2(C)C3CCC4=C(COC4=O)C3(C)CC(OC(=O)CC(C)=CC(=O)O)C2C2(C)CCCC(C)(C)C12 (centres unmarked) [Compound 6, Nambiscalarane G] |  | 128 mg/L (≈ 224 µM) |  | 64 mg/L (≈ 112 µM) | 16.5 ± 2.79 µM | inactive | 78.2 ± 4.28 µM |  | inactive | > 100 µM | 45.9 ± 2.77 µM |  | > 100 µM |  |  |  |  |  |  |
| CC(=O)OC1CC2(C)C3CCC4=C(C(O)OC4=O)C3(C)CC(OC(=O)C=C(C)CC(=O)O)C2C2(C)CCCC(C)(C)C12 (centres unmarked) [Compound 7, Nambiscalarane H] |  | 64 mg/L (≈ 109 µM) | 64 mg/L (≈ 109 µM) |  | > 100 µM | inactive | > 100 µM |  |  | > 100 µM | > 100 µM | inactive | > 100 µM | no cytotoxicity |  |  |  |  |  |
| NC[C@H]1O[C@H](O[C@H]2[C@H](O)[C@@H](O[C@H]3O[C@H](CO)[C@@H](O)[C@H](N)[C@H]3O)[C@H](N)C[C@@H]2N)[C@H](O)[C@@H](O)[C@@H]1O [Kanamycin, reference compound] |  |  |  |  |  | 4 mg/L (≈ 8.26 µM) |  | 16 mg/L (≈ 33 µM) | 8 mg/L (≈ 16.5 µM) |  |  | 2 mg/L (≈ 4.13 µM) |  |  |  |  |  |  |  |
| N.N.[Cl][Pt][Cl] [cis-platin, reference compound] |  |  |  |  |  |  |  |  |  |  |  |  |  |  | 4.93 ± 0.77 µM | 5.3 ± 0.23 µM | > 100 µM | 16.86 ± 0.03 µM | 6.43 ± 0.13 µM |

Now from value to molecule, other results behind:

| MIC [1] | MIC [2] | MIC [3] | MIC [4] | IC50 ([5]; Homo sapiens, HCT-116, 72 h) | MIC, Methicillin Resistant Staphylococcus aureus DMST 20654 [1] | IC50 (HT29 human colon cancer; Homo sapiens, HT-29, 72 h) | MIC, Bacillus cereus ATCC 11778 [2] | MIC, Bacillus subtilis ATCC 6633 [3] | IC50 ([6]; Homo sapiens, A549, 72 h) | IC50 ([7]; Homo sapiens, HeLa) | MIC, Staphylococcus aureus ATCC 25923 [4] | SMILES | IC50 (Vero cells; Chlorocebus sabaeus, Vero) | IC50, Vero Cells (Vero cells) | IC50 ([5]; 72 h) | IC50 (HT29 human colon cancer; 72 h) | IC50 (Vero cells) | IC50 ([6]; 72 h) | IC50 [7] |
| --- | --- | --- | --- | --- | --- | --- | --- | --- | --- | --- | --- | --- | --- | --- | --- | --- | --- | --- | --- |
|  |  |  | 128 mg/L (≈ 345 µM) | 20.3 ± 3.13 µM | inactive | 22.71 ± 0.16 µM | inactive | inactive | 24.3 ± 7.56 µM | 40.8 ± 0.73 µM |  | CC1(C)CCCC2(C)C1C(O)CC1(C)C3CCc4cocc4C3(C)CCC21 (centres unmarked) [Compound 1, Nambiscalarane B] | > 100 µM |  |  |  |  |  |  |
| 128 mg/L (≈ 249 µM) | 32 mg/L (≈ 62.2 µM) | 32 mg/L (≈ 62.2 µM) | 128 mg/L (≈ 249 µM) | 14.3 ± 0.56 µM |  | 33 ± 1.63 µM |  |  | 85 ± 10.2 µM | 73.2 ± 5.37 µM |  | CC(=O)OC1CC2(C)C3CCc4cocc4C3(C)CC(OC(=O)CC(=O)O)C2C2(C)CCCC(C)(C)C12 (centres unmarked) [Compound 2, Nambiscalarane C] | > 100 µM |  |  |  |  |  |  |
|  |  |  | 128 mg/L (≈ 250 µM) | 13.4 ± 0.39 µM | inactive | 19.6 ± 2.32 µM | inactive | inactive | 22.9 ± 1.99 µM | 23.7 ± 0.51 µM |  | CC(=CC(=O)OC1CC2(C)c3cocc3CCC2C2(C)CC(O)C3C(C)(C)CCCC3(C)C12)CC(=O)O (centres unmarked) [Compound 4, Nambiscalarane E] | > 100 µM |  |  |  |  |  |  |
| 128 mg/L (≈ 231 µM) | 16 mg/L (≈ 28.8 µM) | 8 mg/L (≈ 14.4 µM) | 16 mg/L (≈ 28.8 µM) | 24.4 ± 2.06 µM |  | 20.4 ± 2.07 µM |  | 8 mg/L (≈ 14.4 µM) | 27.5 ± 0.32 µM | 26.6 ± 2.58 µM |  | CC(=O)O[C@H]1C[C@]2(C)[C@H]([C@H](OC(=O)/C=C(\C)CC(=O)O)C[C@]3(C)c4cocc4CC[C@@H]23)[C@@]2(C)CCCC(C)(C)[C@H]12 [Compound 8, Nambiscalarane] | > 100 µM |  |  |  |  |  |  |
